This note sets out measurements from patent US12509431B2, “1,4-dihydroquinazolinone compounds and uses thereof” (Edgewise Therapeutics, Inc., priority 2022, dated 2025).

Assay type in all cases: biochemical
Assay [1] concerns the target T1, Porcine Ventricle myofibrils (left ventricle of Yucatan minipigs) (Sus scrofa, UniProt P79293).
T1 construct: Myofibrils from porcine cardiac muscle was isolated from the left ventricle of Yucatan minipigs; tissue Exemplar Genetics; host or cells: left ventricle of Yucatan minipigs
Description: Myofibril ATPase assay (PK/LDH NADH-coupled), ventricle myofibrils. An outline of the steps:
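NADH depletion (A340) coupled through pyruvate kinase/lactate dehydrogenase reports ATPase rate of porcine left-ventricle myofibrils over 75 min kinetic reads. Regression slopes, vehicle-normalized, fitted by 4-parameter logistic give EC25 and, where available, EC50.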

The next assay concerns the target T2, myosin+native RLC (Sus scrofa, UniProt P79293).
T2 construct: Full-length myosin was resuspended to 1 mg/mL
Description: NADH-coupled actin-activated ATPase assay, myosin + native RLC. The note with it: 1 μM myosin, rabbit skeletal actin, 25° C., 1% DMSO. On the procedure: (§1) Full-length myosin was resuspended to 1 mg/mL in a buffer containing 500 mM KCl, 10 mM KPi, 15 mM CDTA, pH 8.5. Triton-X was then added to a final concentration of […], and the suspension was agitated for 15 minutes at room temperature to selectively remove the regulatory light chain (RLC). RLC-removed myosin was then precipitated and collected and resuspended in a buffer containing 400 mM KCl, 50 mM Mops, pH 7, 2 mM MgCl2, and 1 mM DTT. Recombinantly expressed and purified human ventricle RLC was added in a 3-fold molar excess to myosin and incubated on ice for 2 hours to allow for reassociation of the RLC onto myosin. Triton (0.1%) was added to the reaction to prevent any non-specific binding events. RLC-exchanged myosin was then precipitated and collected and resuspended in a buffer containing 12 mM PIPES, pH 6.8, […], 2 mM MgCl2, and 1 mM DTT. RLC removal and exchange were confirmed by SDS-PAGE and proteins were visualized using coomassie stain.
(§2) Myosin was resuspended in buffer A (f.c.=12 mM PIPES, pH 6.8, 30 mM KCl, 2 mM MgCl2, 1 mM DTT, 0.1 mg/mL BSA, 0.01% (v/v) Antifoam 204, and 0.6% (v/v) PK/LDH (final reaction contains ≥3.6 U/mL PK and >5.4 U/mL LDH)) at final concentrations of 1 μM for myosin+native RLC and 2 μM for myosin+removed RLC and myosin+human ventricle RLC. Buffer A was then mixed with an equal volume of buffer B (f.c.=12 mM PIPES, pH 6.8, 30 mM KCl, 2 mM MgCl2, 1 mM DTT, 0.1 mg/mL BSA, 0.01% (v/v) Antifoam 204, 0.5 mM NADH, 1.5 mM phosphoenolpyruvate, 1 mM ATP, and 0.3 mg/mL filamentous rabbit skeletal actin) in a 384-well plate. Dose-dependent compound effects were assessed by adding the compounds at varying concentrations between 100 μM and 2 nM, all with a constant final DMSO concentration of 1% v/v. The reactions were run at a constant temperature of 25° C. in the plate reader to monitor the change in A340 over time. Measurements were taken every 90 sec for 75 min to generate raw time-domain absorbance data, which was processed to normalized reaction rates. Normalized enzymatic rates were calculated, using rates observed in 1% (v/v) in DMSO as 100% and 0 slope as 0%. Compound-specific activity curves were generated by plotting the normalized rates versus compound concentration and fitting the data to a 4-parameter logistic model. In addition to the fit parameters, the IC25% was calculated, relative to the 100% normalized value.

Assay [2] has as its target T3, myosin+human ventricle RLC (Sus scrofa, UniProt P79293).
T3 construct: Full-length myosin was resuspended to 1 mg/mL
Description: NADH-coupled actin-activated ATPase assay, myosin + human ventricle RLC. The note with it: 2 μM myosin, rabbit skeletal actin, 25° C., 1% DMSO. The procedure:
as §1, §2

T1 sequence (P79293 whole entry): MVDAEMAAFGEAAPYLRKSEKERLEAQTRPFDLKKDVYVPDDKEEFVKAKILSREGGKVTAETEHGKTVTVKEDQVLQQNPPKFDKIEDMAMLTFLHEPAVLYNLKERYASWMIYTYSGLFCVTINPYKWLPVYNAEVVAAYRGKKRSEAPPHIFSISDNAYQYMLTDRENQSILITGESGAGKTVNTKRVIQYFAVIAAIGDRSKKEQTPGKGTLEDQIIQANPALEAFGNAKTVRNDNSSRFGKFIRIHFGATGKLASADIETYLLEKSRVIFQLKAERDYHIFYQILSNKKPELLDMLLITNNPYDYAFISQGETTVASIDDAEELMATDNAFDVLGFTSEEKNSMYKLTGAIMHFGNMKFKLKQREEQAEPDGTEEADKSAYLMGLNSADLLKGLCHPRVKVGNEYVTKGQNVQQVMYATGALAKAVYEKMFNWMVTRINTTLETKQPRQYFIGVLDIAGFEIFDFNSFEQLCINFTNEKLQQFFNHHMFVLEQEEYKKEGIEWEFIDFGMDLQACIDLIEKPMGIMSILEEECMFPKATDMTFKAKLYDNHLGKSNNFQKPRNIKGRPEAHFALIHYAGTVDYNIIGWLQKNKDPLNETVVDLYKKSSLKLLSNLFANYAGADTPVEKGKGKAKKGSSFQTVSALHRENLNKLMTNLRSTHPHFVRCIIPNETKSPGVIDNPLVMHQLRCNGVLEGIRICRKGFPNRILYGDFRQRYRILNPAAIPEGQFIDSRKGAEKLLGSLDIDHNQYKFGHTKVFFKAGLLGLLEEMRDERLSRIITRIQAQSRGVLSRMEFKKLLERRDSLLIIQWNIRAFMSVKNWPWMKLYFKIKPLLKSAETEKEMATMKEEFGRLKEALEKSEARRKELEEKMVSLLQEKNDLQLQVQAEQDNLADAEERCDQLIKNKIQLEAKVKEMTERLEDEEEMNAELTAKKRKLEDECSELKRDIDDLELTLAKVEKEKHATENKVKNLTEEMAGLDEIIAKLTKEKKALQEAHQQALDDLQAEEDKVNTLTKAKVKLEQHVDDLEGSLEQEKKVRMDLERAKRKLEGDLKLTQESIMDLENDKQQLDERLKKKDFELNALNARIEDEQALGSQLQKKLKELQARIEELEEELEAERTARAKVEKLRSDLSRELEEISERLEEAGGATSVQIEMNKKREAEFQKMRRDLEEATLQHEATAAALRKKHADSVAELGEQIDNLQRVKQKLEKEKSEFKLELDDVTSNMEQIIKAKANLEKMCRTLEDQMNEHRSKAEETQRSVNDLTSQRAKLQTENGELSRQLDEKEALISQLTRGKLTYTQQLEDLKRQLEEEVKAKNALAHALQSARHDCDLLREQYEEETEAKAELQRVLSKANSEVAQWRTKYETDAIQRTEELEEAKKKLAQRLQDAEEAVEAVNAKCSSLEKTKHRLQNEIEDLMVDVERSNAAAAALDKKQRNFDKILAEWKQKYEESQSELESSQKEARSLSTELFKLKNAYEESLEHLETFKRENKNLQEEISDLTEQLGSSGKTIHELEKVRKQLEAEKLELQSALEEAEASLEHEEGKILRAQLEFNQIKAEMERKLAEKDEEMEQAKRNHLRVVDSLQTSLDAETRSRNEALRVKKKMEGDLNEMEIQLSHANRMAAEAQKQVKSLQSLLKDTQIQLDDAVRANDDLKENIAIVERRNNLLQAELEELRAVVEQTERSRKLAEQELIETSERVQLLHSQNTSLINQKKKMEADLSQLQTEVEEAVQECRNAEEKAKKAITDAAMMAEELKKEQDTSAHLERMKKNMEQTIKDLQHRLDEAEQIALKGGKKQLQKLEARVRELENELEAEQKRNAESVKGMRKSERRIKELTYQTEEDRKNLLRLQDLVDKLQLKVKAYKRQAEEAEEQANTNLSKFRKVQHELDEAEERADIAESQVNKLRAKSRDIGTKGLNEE
T3 sequence (P79293 whole entry): as above
T2 sequence (P79293 whole entry): as above

As for `N#Cc1cnc2c(c1)OCC2NC(=O)CN1Cc2c(ccc(F)c2F)NC1=O` (single isomer, unassigned) [Compound B65], the “Porcine Ventricle IC25” value in assay [1] (Table 8) amounted to 166.7 nM. In addition, the “Potency, Full-length myosin + native porcine ventricle RLC” value at myosin+native RLC came out at 550 nM. Further, the “Potency, Full-length myosin + exchanged human ventricle RLC” value in assay [2] worked out at 690 nM.

In the case of `CC(NC(=O)CN1Cc2cc(F)ccc2NC1=O)c1ccc(C#N)cc1F` (single isomer, unassigned) [Compound B206], the “Porcine Ventricle IC25” value in assay [1] (Table 8) was 47.69 nM. Further, the “Potency, Full-length myosin + native porcine ventricle RLC” value on myosin+native RLC came out at 970 nM. Also, in assay [2], the “Potency, Full-length myosin + exchanged human ventricle RLC” value came to 680 nM.

For `C[C@@H](NC(=O)CN1Cc2c(ccc(F)c2F)NC1=O)c1ncc(C#N)cc1F` [Compound B141, (R)—N-(1-(5-cyano-3-fluoropyridin-2-yl)ethyl)-2-(5,6-difluoro-2-oxo-1,4-dihydroquinazolin-3(2H)-yl)acetamide], the “Porcine Ventricle IC25” value in assay [1] (Table 8) was 3094 nM. Moreover, the “Potency, Full-length myosin + native porcine ventricle RLC” value at myosin+native RLC is 15480 nM. Besides, the “Potency, Full-length myosin + exchanged human ventricle RLC” value in assay [2] came to 13900 nM.

Regarding `O=C(CN1Cc2cc(F)ccc2NC1=O)N[C@@H]1COc2cc(F)cc(F)c21` [Compound B145], the “Porcine Ventricle IC25” value in assay [1] (Table 8) came out at 51.2 nM. Further, the “Potency, Full-length myosin + native porcine ventricle RLC” value on myosin+native RLC came out at 1190 nM. Besides, in assay [2], the “Potency, Full-length myosin + exchanged human ventricle RLC” value was 670 nM.

`O=C(CN1Cc2c(ccc(F)c2F)NC1=O)N[C@@H]1COc2cc(F)cc(F)c21` [Compound B147]: the “Porcine Ventricle IC25” value in assay [1] (Table 8) was determined as 77.66 nM. Further, the “Potency, Full-length myosin + native porcine ventricle RLC” value at myosin+native RLC was found to be 630 nM. Also, in assay [2], the “Potency, Full-length myosin + exchanged human ventricle RLC” value came out at 480 nM.

As to `C[C@H](NC(=O)CN1Cc2c(ccc(F)c2F)NC1=O)c1ccc(C#N)cc1F` [Compound B189], the “Porcine Ventricle IC25” value in assay [1] (Table 8) came to 77.43 nM. For the same molecule, the “Potency, Full-length myosin + native porcine ventricle RLC” value at myosin+native RLC was determined as 390 nM. Further, the “Potency, Full-length myosin + exchanged human ventricle RLC” value in assay [2] amounted to 330 nM.

Consider `C[C@H](NC(=O)CN1Cc2c(ccc(F)c2F)NC1=O)c1ncc(F)cc1F` [Compound B191], for which the “Porcine Ventricle IC25” value in assay [1] (Table 8) worked out at 191.3 nM. Also, the “Potency, Full-length myosin + native porcine ventricle RLC” value at myosin+native RLC was determined as 450 nM. The “Potency, Full-length myosin + exchanged human ventricle RLC” value in assay [2] is 440 nM.

`C[C@H](NC(=O)CN1Cc2cc(F)ccc2NC1=O)c1ncc(C#N)cc1F` [Compound B199]: the “Porcine Ventricle IC25” value in assay [1] (Table 8) is 569.3 nM. Besides, on myosin+native RLC, the “Potency, Full-length myosin + native porcine ventricle RLC” value is 560 nM. Also, the “Potency, Full-length myosin + exchanged human ventricle RLC” value in assay [2] amounted to 629 nM.

On to `C[C@H](NC(=O)CN1Cc2cc(F)ccc2NC1=O)c1ccc(F)cc1F` [Compound B247, N-[(1S)-1-(2,4-Difluorophenyl)ethyl]-2-(6-fluoro-2-oxo-1,4-dihydroquinazolin-3-yl)acetamide], for which the “Porcine Ventricle IC25” value in assay [1] (Table 8) was 296.8 nM. Further, the “Potency, Full-length myosin + native porcine ventricle RLC” value at myosin+native RLC is 970 nM. Moreover, the “Potency, Full-length myosin + exchanged human ventricle RLC” value in assay [2] amounted to 1020 nM.

On to `O=C(CN1C(=O)Nc2cccnc2C12CC2)N[C@@H]1COc2cc(F)cc(F)c21` [Compound N33], for which the “Porcine Ventricle IC25” value in assay [1] (Table 7) is 283.2 nM. The “Potency, Full-length myosin + native porcine ventricle RLC” value on myosin+native RLC was found to be 400 nM. Moreover, the “Potency, Full-length myosin + exchanged human ventricle RLC” value in assay [2] is 400 nM.
